{"source": "patent US12662707B2", "about": "“MYC amplification drives resistance to pan-RAS inhibitors in pancreatic cancer” (The Trustees of Columbia University in the City of New York, priority 2024, dated 2026)", "key": {"[1]": {"test_system": "human PDAC organoids", "assay": "Organoid drug treatment and viability assay", "type": "cell-based", "conditions": "Matrigel-embedded human PDAC organoids; 6 days", "description": "Organoids were cultured at 37° C. in 5% CO2. Cells were seeded in growth factor reduced Matrigel (Corning; Cat. #356231) domes and incubated with human organoid medium formulated as follows: Advanced DMEM/F12-based-conditioned medium, 1×B27 supplement, 10 mM HEPES, 2 mM GlutaMAX, 10 mM nicotinamide, 1.25 mM N-acetylcysteine, 50 ng/mL mEGF, 100 ng/mL hFGF10, […] hGastrin I, 500 nM A83-01, Noggin 100 ng/mL, 1×Wnt-3A conditioned 10% FBS DMEM (50% by volume) and 1×R-spondin Conditioned Basal Medium (10% by volume)^52,53\nOrganoids were dissociated using TrypLE Express (Thermo Fisher, Cat. #12604054) and cells were seeded into ultra-low attachment 384-well plates at 1×10^3 cells per well into […] of culture media, consisting of 10% Matrigel and 90% human organoid medium. […] Cell viability was assessed 6 days post-treatment using a Cell-TiterGlo 3D Cell Viability assay (Promega, G9683), according to the manufacturer's instructions. […] was read using a FLUOstar Omega microplate reader. Technical triplicates were analyzed for each biological replicate and a total of three biological replicates were done for each cell line. CTG assay readouts were plotted as a function of log molar [inhibitor] and a 4-parameter sigmoidal concentration response model was fitted to the data. […]"}, "[2]": {"test_system": "human PDAC xenograft models", "assay": "Human PDAC xenograft (CDX/PDX) tumor growth studies", "type": "in vivo, mouse", "conditions": "10 mg/kg daily", "description": "Studies were conducted at the following CROs: GenenDesign (Shanghai, China), Pharmaron (Beijing, China), and Wuxi AppTec (SuZhou, China). All CDX/PDX mouse studies and procedures related to animal handling, care and treatment were conducted in compliance with all applicable regulations and guidelines of the relevant Institutional Animal Care and Use Committee (IACUC). Female BALB/c nude mice and NOD SCID mice 6-8 weeks old from Beijing Vital River/VR Laboratory Animal Co., LTD, Beijing AniKeeper Biotech Co., Ltd., and Shanghai Sino-British SIPPR/BK Laboratory Animal Co., LTD were used for these studies.\nIn order to generate subcutaneous xenograft tumors each mouse was inoculated at the right flank with tumor cells (2×10^6-1×10^7) in 100-200 μl of media/PBS supplemented with Matrigel (1:1). Treatments were started when the average tumor volume reached 150-250 mm^3 (for tumor growth evaluation) and 400-600 mm^3 (for single dose pharmacokinetic/pharmacodynamic (PK/PD) study). Tumor diameter was measured in two dimensions using a digital caliper, and the tumor volume in mm^3 was calculated using the formula: Volume=((width)2×length)/2. Mice on studies were weighed and tumors were measured 2 times a week.\nThe human primary cancer xenograft models were generated using fresh tumor fragments obtained from hospitals with informed consent from the patients in accordance with protocols approved by the Hospital Institutional Ethical Committee (IEC). The tumor fragments were serial passaged in BABL/c nude mice and then cryopreserved for further use. For this study, recovered tumor fragments of about 15-30 mm^3 in size from each model were implanted into right flanks of BALB/c nude mice. Treatment started when average tumor volume reached 150-250 mm^3.\nTo generate orthotopic xenograft tumors, survival surgeries were carried out and 2×10^6 5×10^6 luciferase-expressing tumor cells in 30-50 μL Media/Matrigel mixtures (1:1) were implanted directly into the mouse pancreas. Treatments were started when the tumors produced an average of 50-80×10^7 photon/second as measured by the in vivo imaging system (IVIS). All subsequent tumor measures were also conducted by IVIS. For routine monitoring, mice were injected intraperitoneally with 15 mg/mL (at 5 μL/g BW) of D-Luciferin (Perkin Elmer) and imaged, after which Living Image software (Perkin Elmer) was used to compute regions of interest (ROI) and tumor volumes.\nTumor-bearing animals were randomized and assigned into groups (n=3-10/group). Vehicle or RMC-7977 was administered via oral gavage daily at 10 mg/kg and animals were treated for 21-28 days. Studies were terminated early if tumor burden reached humane endpoint. Body weights were collected twice a week during the study. Means±s.e.m were plotted in the waterfall plots. For the single-dose pharmacokinetic/pharmacodynamic (PK/PD) study, mice were randomized and assigned into groups (n=3-6/dose/timepoint). A single dose of RMC-7977 was administered orally at 10 mg/kg, 25 mg/kg and 50 mg/kg. Tissues (including tumor, colon and skin) were harvested at indicated time points and either fixed in 10% formalin, embedded in Optimal Cutting Temperature (OCT; Sakura, 4583) solution or snap-frozen in LN2 for further analysis. Whole blood was transferred into K2EDTA Microtainer tubes (BD, 365974), incubated for 5 minutes and snap-frozen in LN2."}, "[3]": {"test_system": "human PDAC explants", "assay": "Ex vivo human PDAC explants, IHC for pERK and CC3", "type": "cell-based", "description": "Explant culture sponges and optimized culture media were prepared as previously described in Hasselluhn and Decker-Farrell et al.^54. Human tissue samples were obtained from de-identified patients undergoing resection surgeries, primarily pancreaticoduodenectomy (Whipple) or distal pancreatectomy, at New York-Presbyterian/Columbia University Irving Medical Center. Upon receipt of a resected human PDAC fragment (n=4), each tissue sample was cut into […] slices using a Compresstome. Any tumor tissue remaining after sectioning was fixed in 4% paraformaldehyde (Santa Cruz Biotechnology, sc-281692) for 2 hours, at 4° C. as the Day 0 control. […] Each well of a 24 well plate contained one explant slice placed between bottom sponge (1 cm^3) and a top sponge (2-3 mm thick). After 24 hours culture, explants were collected and fixed in 4% PFA for 2 hours. Fixed tissue was then transferred to 70% ethanol and paraffin embedded for long-term storage and further analysis. All tissues were fixed for up to 24 hours using 10% neutral buffered formalin and then moved to 70% ethanol for long term storage. All stainings were performed on 4-μm tissue sections. Sections were deparaffinized using a Leica XL ST5010 autostainer, after which slides were subjected to heat-activated epitope retrieval. […] Slides were further blocked in serum for 1 hour, and primary antibodies were added for overnight incubation at 4° C. […] Following incubation, ImmPACT DAB peroxidase (Vector Laboratories, SK-4100) was used to develop the stain and hematoxylin was used as nuclear counterstain. Stained slides were imaged at 40× magnification. Quantitative analyses of IHC images were performed using ImageJ."}, "[4]": {"conditions": "explants treated for 24 hours, 10-100 nM"}}, "data": [{"smiles": "CCn1c(-c2cc(N3CCN(C4CC4)CC3)cnc2[C@H](C)OC)c2c3cc(ccc31)-c1csc(n1)C[C@H](NC(=O)[C@H]1[C@@H]3COC[C@@H]31)C(=O)N1CCC[C@H](N1)C(=O)OCC(C)(C)C2", "note": "[RMC-7977]", "values": [{"measurement": "potency in concentration-response cell viability assays", "setting": "[1]", "result": "low nanomolar potency"}, {"measurement": "models with tumor regressions", "setting": "[2]; 21-28 days", "result": "7/10"}, {"measurement": "response of KRASQ61H mutant HS-766T line in CDX setting", "setting": "[2]; HS-766T CDX", "result": "among the most responsive"}, {"measurement": "tolerability", "setting": "[2]; all 10 models", "result": "well tolerated"}, {"measurement": "anti-tumor activity", "setting": "[2]; all 10 models, 21-28 days", "result": "significant anti-tumor activity"}, {"measurement": "body weight over time", "setting": "[2]; treated animals", "result": "stable body weight"}, {"measurement": "apoptosis marker cleaved caspase 3 (CC3) (IHC)", "setting": "[3]; [4]", "result": "increase"}, {"measurement": "pERK expression (IHC)", "setting": "[3]; [4]", "result": "concentration-dependent decrease"}, {"measurement": "concentration of maximal changes in pERK and CC3", "setting": "[3]; highest concentration tested", "result": 100, "unit": "nM"}, {"measurement": "response of the KRASWT explant model", "setting": "[3]; one of the four explant models, KRASWT", "result": "sensitive"}]}]}
